Results reported in patent US10751293B2, “Polymer fiber scaffolds and uses thereof” (CASE WESTERN RESERVE UNIVERSITY, priority 2015, dated 2020).

Assay: thermogravimetric analysis (TGA), thermal stability

## Clc1ccccc1C(c1ccccc1)(c1ccccc1)n1ccnc1 [Clotrimazole]
180° C.
  stability at the processing temperature: stable
non-isothermal mode
  temperature above which decomposition begins: above 190 °C
